Here are results for 24 compounds from EP4737442A1, “DIAMINOVINYLIDENE DERIVATIVE OR SALT THEREOF, PEST CONTROL AGENT CONTAINING SAID COMPOUND, AND METHODS FOR USING THESE” (ADEKA CORPORATION, priority 2023, dated 2025).

One experiment concerns Dirofilaria immitis. In words: Effect test on Dirofilaria immitis (larval motility inhibition). The settings on record: 168 h, read-out: motility inhibition rate.
The test system of another experiment is Plutella xylostella. The experiment in a line: Insecticidal test against Plutella xylostella. The settings on record: in Brassica rapa, 144 h, read-out: corrected mortality (%), assessment.
Another experiment deals with Laodelphax striatellus. In words: Insecticidal test against Laodelphax striatellus. The note with it: in Oryza sativa, 192 h, read-out: corrected mortality (%), assessment.
The test system of experiment [1] is Frankliniella occidentalis. The experiment in a line: Insecticidal test against Frankliniella occidentalis. The note with it: in Phaseolus vulgaris, 96 h, read-out: corrected mortality (%), assessment.
Text: Female adults of Frankliniella occidentalis were inoculated onto Phaseolus vulgaris leaf pieces, and after allowing them to lay eggs for one day, the female adults were removed. […] Four days after the treatment, the number of surviving larvae of this species larvae was examined.

Text for Plutella xylostella: Six days after the immersion in the drug solution, the number of surviving insects was examined.

Regarding `CNC(Nc1ccc(F)nc1)=C1C(=O)CC(c2ccc(C(F)(F)F)cc2)NC1=O` (stereo not drawn) [3-11], the inhibition at 100 µM with Dirofilaria immitis is at least 50%. In addition, the mortality at 500 µg/mL in the experiment with Plutella xylostella was 100%. Moreover, the mortality at 500 ppm in the experiment with Laodelphax striatellus came to 100%.
Turning to `Cn1nc(C2CC(=O)C(=C(Nc3ccc(F)cc3)Nc3ccc(F)nc3)C(=O)N2)cc1OC(F)F` (stereo not drawn) [3-22], in the experiment on Dirofilaria immitis, the inhibition at 100 µM is at least 50%. Further, the mortality at 500 µg/mL in the experiment with Plutella xylostella is 100%. Moreover, in the experiment on Laodelphax striatellus, the mortality at 500 ppm turned out to be 100%.
With `CNC(Nc1ccc(F)nc1)=C1C(=O)CC(c2nc(-c3ccc(F)cc3)cs2)NC1=O` (stereo not drawn) [3-23], in the experiment with Dirofilaria immitis, the inhibition at 100 µM is at least 50%. Also, the mortality at 500 µg/mL with Plutella xylostella was determined as 100%. The mortality at 500 ppm in the experiment on Laodelphax striatellus was found to be 100%.
Regarding `O=C1CC(c2nc(-c3ccc(F)cc3)cs2)NC(=O)C1=C(Nc1ccc(F)cc1)Nc1ccc(F)nc1` (stereo not drawn) [3-24], the inhibition at 100 µM in the experiment with Dirofilaria immitis is at least 50%. The mortality at 500 µg/mL with Plutella xylostella is 100%.
The matching figures for `O=C1CC(c2nc(-c3ccc(F)cc3)cs2)NC(=O)C1=C(Nc1ccc(F)nc1)Nc1ccc(F)nc1` (stereo not drawn) [3-25]: at least 50% and 100%.
In the case of `CC(C)(C)OC(=O)C1CC(=O)C(=C(Nc2ccc(F)cc2)Nc2ccc(F)nc2)C(=O)N1` (stereo not drawn) [3-39], the inhibition at 100 µM with Dirofilaria immitis is at least 50%. Further, the mortality at 500 µg/mL with Plutella xylostella worked out at 100%.
Regarding `NC(Nc1ccc(F)cc1)=C1C(=O)CC(c2cnc(Cl)c(Br)c2)NC1=O` (stereo not drawn) [3-42], the inhibition at 100 µM in the experiment with Dirofilaria immitis is at least 50%. Moreover, the mortality at 500 µg/mL in the experiment on Plutella xylostella is 100%. In the experiment on Laodelphax striatellus, the mortality at 500 ppm came to 100%.
Take `CCCNC(Nc1ccc(F)cc1)=C1C(=O)CN(c2ccc(C#N)cn2)CC1=O` [4-3]: the inhibition at 100 µM in the experiment on Dirofilaria immitis was at least 50%. Further, the mortality at 500 µg/mL with Plutella xylostella came to 100%.
Take `COC(=O)N1C(=O)C(=C(Nc2ccc(F)cc2)Nc2ccc(F)cc2)C(=O)CN1c1ccc(C#N)nc1` [6-4]: the inhibition at 100 µM with Dirofilaria immitis is at least 50%. Further, the mortality at 500 µg/mL in experiment [1] is 100%. For the same compound, in the experiment with Laodelphax striatellus, the mortality at 500 ppm came out at 100%.
Take `COCCOC(=O)N1C(=O)C(=C(Nc2cccc(F)c2)Nc2cccc(F)c2)C(=O)CN1c1ccc(C#N)nc1` [6-6]: the inhibition at 100 µM in the experiment with Dirofilaria immitis was at least 50%. For the same compound, the mortality at 500 µg/mL (with Plutella xylostella; in experiment [1]) was 100% each time. Also, in the experiment on Laodelphax striatellus, the mortality at 500 ppm stood at 100%.
As to `COCCOC(=O)N1C(=O)C(=C(Nc2ccc(OC)cc2)Nc2ccc(OC)cc2)C(=O)CN1c1ccc(C#N)nc1` [6-7], the inhibition at 100 µM with Dirofilaria immitis was at least 50%. Also, in the experiment on Laodelphax striatellus, the mortality at 500 ppm amounted to 100%.
Regarding `CNC(Nc1ccc(F)cc1)=C1C(=O)CN(c2cnc(C#N)c(Br)c2)N(C(=O)OC)C1=O` [6-20], the inhibition at 100 µM in the experiment on Dirofilaria immitis was at least 50%. In experiment [1], the mortality at 500 µg/mL came out at 100%. In addition, the mortality at 500 ppm in the experiment on Laodelphax striatellus is 100%.
For `CNC(Nc1ccc(F)c(F)c1)=C1C(=O)CN(c2ccc(Br)nc2)N(C(=O)OC)C1=O` [6-22], the inhibition at 100 µM in the experiment on Dirofilaria immitis is at least 50%. Further, in the experiment on Laodelphax striatellus, the mortality at 500 ppm was determined as 100%.
As to `CCOC(=O)N1C(=O)C(=C(NC)Nc2cccc(F)c2)C(=O)CN1c1ccc(C#N)c(Cl)c1` [6-30], the inhibition at 100 µM in the experiment with Dirofilaria immitis is at least 50%. In experiment [1], the mortality at 500 µg/mL was 100%.
As for `CNC(Nc1ccc(F)cc1)=C1C(=O)CN(c2ccc(C#N)nc2)N(Cc2cnc(Cl)s2)C1=O` [6-38], the inhibition at 100 µM in the experiment with Dirofilaria immitis is at least 50%. In addition, the mortality at 500 µg/mL in experiment [1] was 100%.
As to `CNC(Nc1ccc(F)cc1)=C1C(=O)CN(c2cnc(C#N)c(Br)c2)N(C)C1=O` [6-47], the inhibition at 100 µM with Dirofilaria immitis was at least 50%. Besides, the mortality at 500 µg/mL in experiment [1] turned out to be 100%. The mortality at 500 ppm with Laodelphax striatellus is 100%.
Regarding `CC(C)(C)c1ccc(CSC(Nc2ccc(F)nc2)=C2C(=O)CC(c3cnc(Cl)c(Br)c3)NC2=O)cc1` (stereo not drawn) [9-32], in the experiment on Dirofilaria immitis, the inhibition at 100 µM was at least 50%. Besides, the mortality at 500 µg/mL in the experiment with Plutella xylostella worked out at 100%. For the same compound, in the experiment on Laodelphax striatellus, the mortality at 500 ppm turned out to be 100%.
For the compound `CSC(Nc1ccc(F)nc1)=C1C(=O)CC(c2cc(OC(F)F)n(C)n2)NC1=O` (stereo not drawn) [9-35], the inhibition at 100 µM in the experiment with Dirofilaria immitis was at least 50%. In addition, the mortality at 500 µg/mL (with Plutella xylostella; in experiment [1]) was 100% each time. In addition, the mortality at 500 ppm with Laodelphax striatellus was 100%.
`CSC(Nc1ccc(F)nc1)=C1C(=O)CC(c2nc(-c3ccc(F)cc3)cs2)NC1=O` (stereo not drawn) [9-36]: the inhibition at 100 µM in the experiment on Dirofilaria immitis is at least 50%. The mortality at 500 µg/mL (in the experiment with Plutella xylostella; in experiment [1]) was 100% throughout. Besides, in the experiment with Laodelphax striatellus, the mortality at 500 ppm worked out at 100%.
Take `CNC(Nc1ccc(F)cc1)=C1C(=O)CN(c2ccc(C#N)cn2)CC1=O` [compound No. 4-1]: the inhibition at 100 µM with Dirofilaria immitis was at least 50%. Moreover, the mortality at 500 µg/mL in the experiment with Plutella xylostella stood at 100%.
`CC(C)(C)OC(=O)N1CC(=O)C(=C(Nc2ccc(F)cn2)Nc2ccc(F)cn2)C(=O)C1` [compound No. 4-10, tertiary butyl 4-(bis((5-fluoropyridin-2-yl)amino)methylene)-3,5-dioxopiperidine-1-carboxylate]: the mortality at 500 ppm with Laodelphax striatellus is 100%.
As for `NC(Nc1ccc(F)cc1)=C1C(=O)CCCN(c2ccc(C(F)(F)F)cc2)C1=O` [compound No. 5-1, 3-(amino((4-fluorophenyl)amino)methylene)-1-(4-(trifluoromethyl)phenyl)azepane-2,4-dione], the mortality at 500 ppm with Laodelphax striatellus came to 100%.
Regarding `COC(=O)N1C(=O)C(=C(NCC(F)F)Nc2ccc(F)cc2)C(=O)CN1c1ccc(C#N)nc1` [compound No. 6-15, methyl 2-(6-cyanopyridin-3-yl)-5-(((2,2-difluoroethyl)amino) ((4-fluorophenyl)amino)methylene)-4,6-dioxotetrahydropyridazine-1(2H)-carboxylate], the inhibition at 100 µM in the experiment on Dirofilaria immitis is at least 50%. Besides, the mortality at 500 ppm in the experiment on Laodelphax striatellus was 100%.
Turning to `CSC(Nc1ccc(F)nc1)=C1C(=O)CC(c2ccc(C(F)(F)F)cc2)CC1=O` (stereo not drawn) [compound No. 9-1], in the experiment on Dirofilaria immitis, the inhibition at 100 µM was at least 50%. Further, the mortality at 500 µg/mL with Plutella xylostella was determined as 100%.
